Measured values as given in article PMC10791743, “Selective CK1α degraders exert antiproliferative activity against a broad range of human cancer cell lines” (Nature Communications, 2024).
Values joined by “and” are separate entries in the source; they are usually repeats but may differ in a detail not shown here. Identical values can stand only once. Like-named read-outs stand apart in the source and are kept apart here.

Assays:
MOLM-13 cells = assay: TMT quantitative proteomics in MOLM-13; format: cell-based, human; conditions: for Proteins with significantly reduced abundance (TMT proteomics): 1 μM; for TMT protein intensity, CDKN1A, replicate values: DMSO 3.10E+04, 3.47E+04; for TMT protein intensity, CSNK1A1, replicate values: DMSO 4.01E+05, 4.09E+05
Description: We next carried out a tandem mass tag (TMT) quantitative proteomics experiment[30] to identify the neosubstrates whose degradation is induced by SJ7095. […] We confirmed the proteomics results by immunoblot analysis of CK1α in MOLM-13 cells following treatment with increasing concentrations of SJ7095 over 4 h (Fig. 2b). Under these conditions compound SJ7095 induced dose-dependent reduction of CK1α protein levels with DC50 value of 15 nM.
Each compound was tested in three wells of 2 million MOLM-13 cells each. […] Cells were then collected and washed with DPBS. Washed cells were centrifuged at 400×g for 5 min at 4 °C, the supernatant was removed, and pellets were snap frozen in liquid nitrogen and stored at −80 °C until sample submission.
The experiment was performed with a previously optimized protocol[30] with slight modification. Cell pellets were lysed in lysis buffer (50 mM HEPES, pH 8.5, 8 M urea, and 0.5% sodium deoxycholate). To profile the whole proteome, the protein lysates (approximately 100 µg of protein per sample) were proteolyzed with LysC (Wako) at an enzyme-to-substrate ratio of 1:100 (w/w) for 2 h at 21 °C. Following this the samples were diluted to a final 2 M Urea concentration, and further digested with trypsin (Promega) at an enzyme-to-substrate ratio of 1:50 (w/w) for at least 3 h. The peptides were reduced by adding 1 mM DTT for 30 min at 21 °C followed by alkylation with 10 mM iodoacetamide (IAA) for 30 min in the dark. The unreacted IAA was quenched with 30 mM DTT for 30 min. Finally, the digestion was stopped by adding trifluoroacetic acid (TFA) to 1%, desalted using C18 cartridges (Harvard Apparatus), and dried by speedvac. The purified peptides were resuspended in 50 mM HEPES (pH 8.5), and labeled with TMT reagents (Thermo Scientific). The differentially labeled samples were pooled equally, desalted, and dried for the subsequent peptide fractionation. Peptide analysis by two-dimensional liquid chromatography–tandem mass spectrometry (LC/LC–MS/MS) and MS data analysis are described in Supplementary Material. […]
Identification/quantification of proteins
The MS/MS raw data were processed by a tag-based hybrid search engine, JUMP7. The data was […]
concatenated with a reversed decoy database for evaluating False Discovery Rate (FDR). Searches were performed using a 15 ppm mass tolerance for precursor ions, fully tryptic restriction with two maximal missed cleavages, three maximal modification sites, and the assignment of b, and y ions.
TMT tags on lysine residues and N-termini (+304.2071453 Da for TMT16 and TMT18) were used for static modifications. In addition, oxidation of Methionine (Met) was considered as a dynamic modification (+15.99492 Da). Putative peptide spectral matches (PSMs) were filtered by mass accuracy and then grouped by precursor ion charge state and further filtered by JUMP-based matching scores, Jscore and ΔJn, to achieve the protein FDR below 1%. For quantification, TMT intensities of reporter ions were extracted, filtered, normalized, and summarized into peptide and […]
Differential expression analysis of proteins
Identification of differentially expressed proteins were conducted by the limma R package8. To control multiple testing, the Benjamini-Hochberg method was employed. Proteins with an adjusted […]
p value of < 0.05 and log2 fold change of > 2-fold of standard deviation (SD) were defined as differentially expressed. […]

CK1α = CK1α (Homo sapiens, UniProt P48729+Q96SW2); assay: CK1α immunoblotting in MOLM-13 cells; format: cell-based; design: immunoblot analysis of CK1α in MOLM-13 cells following treatment with increasing concentrations of SJ7095 over 4 h; endogenous in cells; host or cells: MOLM-13 (DSMZ ACC 554); conditions: for Dmax: read-out: CK1α Dmax (immunoblot); for CK1a western blot quantification: CK1a data from blots in fig 2b
Sequence of CK1α (P48729 whole entry, the tested form may be a part): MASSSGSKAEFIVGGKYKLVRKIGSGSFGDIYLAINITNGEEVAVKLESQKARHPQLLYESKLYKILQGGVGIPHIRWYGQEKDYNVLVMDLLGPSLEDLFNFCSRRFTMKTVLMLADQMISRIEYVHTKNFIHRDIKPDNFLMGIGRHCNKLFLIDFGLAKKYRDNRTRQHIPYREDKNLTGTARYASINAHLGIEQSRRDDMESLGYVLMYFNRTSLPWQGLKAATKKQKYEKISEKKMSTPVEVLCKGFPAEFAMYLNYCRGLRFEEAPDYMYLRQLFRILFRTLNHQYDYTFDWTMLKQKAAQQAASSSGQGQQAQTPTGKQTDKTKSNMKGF
Sequence of CK1α (Q96SW2 whole entry, the tested form may be a part): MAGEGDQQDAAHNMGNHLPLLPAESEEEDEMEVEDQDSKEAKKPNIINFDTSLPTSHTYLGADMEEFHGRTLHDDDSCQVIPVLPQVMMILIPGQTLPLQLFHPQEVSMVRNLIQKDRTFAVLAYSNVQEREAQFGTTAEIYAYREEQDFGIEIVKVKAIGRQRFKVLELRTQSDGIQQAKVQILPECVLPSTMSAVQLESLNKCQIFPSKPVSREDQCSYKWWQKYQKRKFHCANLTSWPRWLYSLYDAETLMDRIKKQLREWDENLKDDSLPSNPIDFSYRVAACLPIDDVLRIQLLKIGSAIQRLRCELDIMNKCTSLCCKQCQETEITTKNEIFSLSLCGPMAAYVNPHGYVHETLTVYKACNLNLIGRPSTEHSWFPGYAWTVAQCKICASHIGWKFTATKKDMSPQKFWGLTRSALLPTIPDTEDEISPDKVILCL
Sequence of CK1α (Q16531 whole entry partner, the tested form may be a part): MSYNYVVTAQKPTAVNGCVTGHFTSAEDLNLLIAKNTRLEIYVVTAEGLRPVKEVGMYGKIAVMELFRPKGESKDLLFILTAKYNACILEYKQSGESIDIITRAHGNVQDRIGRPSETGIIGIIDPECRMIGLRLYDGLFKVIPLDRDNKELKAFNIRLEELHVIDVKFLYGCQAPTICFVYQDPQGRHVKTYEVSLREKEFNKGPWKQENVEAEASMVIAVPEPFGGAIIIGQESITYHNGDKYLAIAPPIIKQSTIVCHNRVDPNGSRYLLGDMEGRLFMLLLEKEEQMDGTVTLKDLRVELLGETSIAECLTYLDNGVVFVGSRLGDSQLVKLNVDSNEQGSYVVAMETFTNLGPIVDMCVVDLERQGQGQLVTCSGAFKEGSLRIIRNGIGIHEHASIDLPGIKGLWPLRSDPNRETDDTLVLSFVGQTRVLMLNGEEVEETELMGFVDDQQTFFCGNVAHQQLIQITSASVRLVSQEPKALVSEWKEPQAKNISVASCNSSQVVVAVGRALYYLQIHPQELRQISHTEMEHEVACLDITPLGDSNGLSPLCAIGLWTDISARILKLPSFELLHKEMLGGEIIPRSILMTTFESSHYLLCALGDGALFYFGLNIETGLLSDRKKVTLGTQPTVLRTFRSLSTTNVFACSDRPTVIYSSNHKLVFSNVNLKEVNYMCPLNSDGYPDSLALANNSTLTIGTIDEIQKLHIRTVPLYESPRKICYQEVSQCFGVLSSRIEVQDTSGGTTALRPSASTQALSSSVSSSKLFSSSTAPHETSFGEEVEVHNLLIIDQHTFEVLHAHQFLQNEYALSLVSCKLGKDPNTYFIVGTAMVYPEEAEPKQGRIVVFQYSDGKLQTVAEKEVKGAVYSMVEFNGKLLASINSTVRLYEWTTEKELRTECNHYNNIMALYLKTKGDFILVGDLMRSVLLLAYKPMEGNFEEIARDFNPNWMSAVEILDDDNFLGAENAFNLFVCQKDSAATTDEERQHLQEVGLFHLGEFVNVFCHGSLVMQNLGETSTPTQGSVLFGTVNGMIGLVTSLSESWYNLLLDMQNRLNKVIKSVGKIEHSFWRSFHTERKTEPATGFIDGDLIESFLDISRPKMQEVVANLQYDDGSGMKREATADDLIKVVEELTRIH
Description: Frozen pellets of ~1 million cells were lysed in 150 µl of SDS lysis buffer (60 mM Tris/HCl pH 7, 10% glycerol, 2% SDS, 5% beta-mercaptoethanol, 0.02% bromophenol blue, 0.5% protease and phosphatase inhibitor cocktail (Sigma Aldrich)). When cells were resuspended, samples were heated for 3 min at 99 °C then put on ice. Samples were then fragmented by sonication for 10 0.5-s pulses (550 Sonic Dismembrator, Fisher Scientific) and heated again at 99 °C for 2 min. 15 μl of each sample was added to the wells of a 4–20% polyacrylamide gel (Bio-Rad). A mixture of 2 μl of Precision Plus Protein Unstained Standards and 2 μl of Precision Plus Protein All Blue Standards (Bio-Rad) was used for the size marker. After electrophoresis, gels were transferred to nitrocellulose membrane using the Bio-Rad Trans-Blot Turbo system on the mixed molecular weight setting. Membranes were blocked for 1 h in Li-Cor Intercept Blocking Buffer then probed overnight at 4 °C with primary antibody, at 1:1000 dilution or 1:2000 dilution for actin, in Li-Cor Intercept Antibody Diluent. The following morning, membranes were washed three times for 5 min with TBS + 0.05% Tween-20, probed with fluorescent secondary antibodies (goat anti-rabbit IRDye 800CW and goat anti-mouse IRDye 680RD, Li-Cor) for 1 h at room temperature in the dark at 1:10,000 dilution, and washed again 3 times. Blots were imaged with the Li-Cor Odyssey CLx and analyzed using Image Studio Version 5.2.

[1] = MOLM-13, 4 h, read-out: CK1α DC50 (immunoblot)
[2] = time course 0-8 hrs, relative to no treatment
[3] = western blot quantification, relative to DMSO

`Cc1cccc(C(=O)Nc2ccc3c(c2)CN(C2CCC(=O)NC2=O)C3=O)c1` (centres unmarked) [SJ0040] was tested, and the “Proteins with significantly reduced abundance (TMT proteomics)” value (MOLM-13 cells; 4 h) was “significantly reduced the abundance of only CK1α out of >9000 proteins”, the “Log2FC vs. DMSO, BHLHE40” value (MOLM-13 cells; 1uM, 4h) was 0.522 and the “Log2FC vs. DMSO, CSNK1A1” value (MOLM-13 cells; 1uM, 4h) was -1.896. It also gave a DC50 (CK1α; [1]) of 11 nM and a Dmax (CK1α; MOLM-13, 4 h) of 88%.

For `O=C1CCC(N2Cc3cc(Nc4noc5ccccc45)ccc3C2=O)C(=O)N1` (centres unmarked) [SJ3149], the “Proteins with significantly reduced abundance (TMT proteomics)” value (MOLM-13 cells; 4 h) was “significantly reduced the abundance of only CK1α out of >9000 proteins”, the “Log2FC vs. DMSO, CSNK1A1” value (MOLM-13 cells; 1uM, 4h) was -0.851 and the “Log2FC vs. DMSO, CTNNB1” value (MOLM-13 cells; 1uM, 4h) was 1.473. For the same compound, the “CK1α protein, time course” value (CK1α; MOLM-13, 1 μM, 0-8 h) was “near complete loss of CK1α protein by 1 h”, the DC50 (CK1α; [1]) was 3.7 nM and 4 nM and the Dmax (CK1α; MOLM-13, 4 h) was 95%. The “CK1a western blot quantification” value (CK1α; SJ3149 0.001 uM, relative to DMSO) was 0.9925 and 0.9819 and 0.7065, the “CK1a western blot quantification” value (CK1α; SJ3149 0.01 uM, relative to DMSO) was 0.3125 and 0.2648 and 0.1727 and the “CK1a western blot quantification” value (CK1α; SJ3149 0.1 uM, relative to DMSO) was 0.1087 and 0.1074 and 0.06013. For the same compound, the “CK1a quantified protein expression (western blot)” value (CK1α; time 8 hrs, relative to no treatment, 3 western blots) was 0.0615 and 0.09529 and 0.04877, the “IC50 (line fit, sigmoidal 4PL) of CK1a expression versus time” value (CK1α; time course 0-8 hrs, X axis is time) was 0.403 and the “Bottom (line fit, sigmoidal 4PL) of CK1a expression versus time” value (CK1α; [2]) was 0.04517. For the same compound, the “Top (line fit, sigmoidal 4PL) of CK1a expression versus time” value (CK1α; [2]) was 0.8089, the DC50 (CK1α; western blot quantification, blots in fig 2b, read-out: IC50 (sigmoidal 4PL fit) of CK1a protein level) was 3.75 nM and the “Bottom (sigmoidal 4PL fit) of CK1a protein level” value (CK1α; [3]) was 0.07909. For the same compound, the “Top (sigmoidal 4PL fit) of CK1a protein level” value (CK1α; [3]) was 1.004.

For `O=C1CCC(N2Cc3c(CNC(=O)c4ccc(F)cc4)cccc3C2=O)C(=O)N1` (centres unmarked) [SJ7095], the “Log2FC vs. DMSO, CDKN1A (Cyclin-dependent kinase inhibitor 1)” value (MOLM-13 cells; 1uM, 4h) was 1.031, the “Log2FC vs. DMSO, CSNK1A1 (Casein kinase I isoform alpha)” value (MOLM-13 cells; 1uM, 4h) was -1.331 and the “TMT protein intensity, CDKN1A, replicate values” (from here on “TMT protein intensity, CDKN1A”) (MOLM-13 cells; 1uM, 4h) was 6.19E+04 and 7.24E+04. For the same compound, the “TMT protein intensity, CSNK1A1, replicate values” (shortened to “TMT protein intensity, CSNK1A1”) (MOLM-13 cells; 1uM, 4h) was 1.55E+05 and 1.67E+05, the “Log2FC vs. DMSO, CDKN1A (Cyclin-dependent kinase inhibitor 1)” value (MOLM-13 cells; 1uM, 8h) was 1.234 and the “Log2FC vs. DMSO, CSNK1A1 (Casein kinase I isoform alpha)” value (MOLM-13 cells; 1uM, 8h) was -1.306. The “TMT protein intensity, CDKN1A” value (MOLM-13 cells; 1uM, 8h) was 7.09E+04 and 8.39E+04, the “TMT protein intensity, CSNK1A1” value (MOLM-13 cells; 1uM, 8h) was 1.62E+05 and 1.65E+05 and the “Log2FC vs. DMSO, CDKN1A (Cyclin-dependent kinase inhibitor 1)” value (MOLM-13 cells; 1uM, 24h) was 1.074. The “Log2FC vs. DMSO, CSNK1A1 (Casein kinase I isoform alpha)” value (MOLM-13 cells; 1uM, 24h) was -1.500, the “TMT protein intensity, CDKN1A” value (MOLM-13 cells; 1uM, 24h) was 7.28E+04 and 6.55E+04 and the “TMT protein intensity, CSNK1A1” value (MOLM-13 cells; 1uM, 24h) was 1.44E+05 and 1.42E+05. For the same compound, the “Proteins significantly degraded (TMT proteomics)” value (MOLM-13 cells; 5 µM, 4 h) was “significant degradation of only three proteins out of over 9000 identified proteins was observed: CK1α, IKZF1, and IKZF3”, the “Log2FC vs. DMSO, CDKN1A” value (MOLM-13 cells; 5uM, 4h) was 1.546 and the “Log2FC vs. DMSO, CSNK1A1” value (MOLM-13 cells; 5uM, 4h) was -1.318. For the same compound, the “Log2FC vs. DMSO, CDKN1A (Cyclin-dependent kinase inhibitor 1)” value (MOLM-13 cells; 5uM, 8h) was 1.278, the “Log2FC vs. DMSO, CSNK1A1 (Casein kinase I isoform alpha)” value (MOLM-13 cells; 5uM, 8h) was -1.485 and the “TMT protein intensity, CDKN1A” value (MOLM-13 cells; 5uM, 8h) was 8.76E+04 and 7.22E+04. For the same compound, the “TMT protein intensity, CSNK1A1” value (MOLM-13 cells; 5uM, 8h) was 1.51E+05 and 1.38E+05, the “Log2FC vs. DMSO, CDKN1A (Cyclin-dependent kinase inhibitor 1)” value (MOLM-13 cells; 5uM, 24h) was 1.163 and the “Log2FC vs. DMSO, CSNK1A1 (Casein kinase I isoform alpha)” value (MOLM-13 cells; 5uM, 24h) was -1.582. For the same compound, the “TMT protein intensity, CDKN1A” value (MOLM-13 cells; 5uM, 24h) was 7.42E+04 and 7.27E+04, the “TMT protein intensity, CSNK1A1” value (MOLM-13 cells; 5uM, 24h) was 1.48E+05 and 1.23E+05 and the “Log2FC vs. DMSO, CDKN1A (Cyclin-dependent kinase inhibitor 1)” value (MOLM-13 cells; 10uM, 4h) was 1.536. The “Log2FC vs. DMSO, CSNK1A1 (Casein kinase I isoform alpha)” value (MOLM-13 cells; 10uM, 4h) was -1.354, the “TMT protein intensity, CDKN1A” value (MOLM-13 cells; 10uM, 4h) was 1.01E+05 and 8.94E+04 and the “TMT protein intensity, CSNK1A1” value (MOLM-13 cells; 10uM, 4h) was 1.47E+05 and 1.71E+05. For the same compound, the CK1α degradation (CK1α; MOLM-13, 100 nM, 4 h) was “near complete degradation of CK1α” and the DC50 (CK1α; [1]) was 15 nM.
